The values below come from ChEMBL document CHEMBL1201862, “PubChem BioAssay data set” (2004).

Active and inactive are the calls of the source.

Test [1] concerns the target Dual specificity protein phosphatase 3 (Homo sapiens, UniProt P51452). Description: VHR phosphatase inhibition, dose response, selectivity assay for STEP inhibitor project, biochemical (AID 602374). It is filed as functional. The note with it: read-out: IC50_Mean.
In test [2] the target is T1, Tyrosine-protein phosphatase non-receptor type 5 (Homo sapiens, UniProt P54829).
T1 sequence (P54829 whole entry): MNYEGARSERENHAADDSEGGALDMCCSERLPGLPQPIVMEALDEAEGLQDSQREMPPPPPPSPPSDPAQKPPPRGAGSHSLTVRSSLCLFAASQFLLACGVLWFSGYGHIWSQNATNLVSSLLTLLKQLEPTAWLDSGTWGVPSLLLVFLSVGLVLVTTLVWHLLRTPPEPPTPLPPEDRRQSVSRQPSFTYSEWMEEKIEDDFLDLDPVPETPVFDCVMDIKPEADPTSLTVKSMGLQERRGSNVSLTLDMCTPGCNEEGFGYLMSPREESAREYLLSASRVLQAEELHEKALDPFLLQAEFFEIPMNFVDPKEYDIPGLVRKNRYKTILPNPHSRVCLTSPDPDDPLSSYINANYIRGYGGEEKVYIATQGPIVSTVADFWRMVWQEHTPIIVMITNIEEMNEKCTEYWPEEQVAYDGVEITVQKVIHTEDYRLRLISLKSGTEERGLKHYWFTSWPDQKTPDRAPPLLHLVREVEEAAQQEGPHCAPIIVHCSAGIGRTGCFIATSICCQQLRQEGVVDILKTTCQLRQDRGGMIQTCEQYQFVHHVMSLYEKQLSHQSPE
Description: PTPN5 enzyme inhibition – biochemical, fluorescence intensity, uHTS hits, confirmation (AID 602372). The following applies: read-out: IC50_Mean. It is filed as functional.

Test [3] has as its target T2, Tyrosine-protein phosphatase non-receptor type 11 (Homo sapiens, UniProt Q06124).
T2 sequence (Q06124 whole entry): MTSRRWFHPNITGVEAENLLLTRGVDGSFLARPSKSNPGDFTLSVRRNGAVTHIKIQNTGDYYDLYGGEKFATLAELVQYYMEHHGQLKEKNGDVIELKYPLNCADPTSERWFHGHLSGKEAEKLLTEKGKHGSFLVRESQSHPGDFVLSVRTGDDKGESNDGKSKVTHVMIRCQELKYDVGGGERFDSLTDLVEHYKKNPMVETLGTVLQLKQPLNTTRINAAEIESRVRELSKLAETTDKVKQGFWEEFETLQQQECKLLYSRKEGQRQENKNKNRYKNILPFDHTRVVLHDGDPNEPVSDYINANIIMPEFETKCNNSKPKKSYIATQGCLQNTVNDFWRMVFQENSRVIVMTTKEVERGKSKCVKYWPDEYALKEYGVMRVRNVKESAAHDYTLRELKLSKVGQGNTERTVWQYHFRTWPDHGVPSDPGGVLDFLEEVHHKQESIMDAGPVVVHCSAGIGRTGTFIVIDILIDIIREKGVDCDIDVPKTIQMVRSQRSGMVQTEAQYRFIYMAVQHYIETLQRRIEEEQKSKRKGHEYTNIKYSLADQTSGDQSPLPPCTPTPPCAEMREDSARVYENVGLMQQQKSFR
Description: PTPN11 enzyme inhibitors – biochemical, selectivity assay for STEP inhibitor project, dose response (AID 602367). It is filed as functional. The following applies: read-out: IC50_Mean.

Test [4] deals with SN12K1. Description: cells. It is filed as functional. The following applies: Homo sapiens.
Test [5] concerns P388. Description: cells. It is filed as functional. The note with it: Mus musculus.
Test [6] has as its system P388/ADR. Kind of test: cells. The note with it: Mus musculus. It is filed as functional.
Test [7] in a line: toxicity toward HepG2 liver cells – cell-based, plate reader, cherry-pick, antagonist series, cytotoxicity control, dose response (AID 743416). It is filed as functional.
The target in test [8] is Protein Wnt-3a (Mus musculus, UniProt P27467). Description: antagonism of Wnt3a pathway luciferase reporter – Wnt-LIGHT cells, luminescence, selectivity assay for Gli-SUFU antagonist project, dose response (AID 651570).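 Also: Wnt-LIGHT reporter cells stimulated with conditioned medium from Wnt3a-producing cells.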 It is filed as functional. The note with it: read-out: IC50_Mean.
A short description of test [9]: non-specific 3'UTR reporter inhibition in Clone20-Shn3RL – cell-based, Renilla luciferase, cherry-picked, counter-screen for Shn3 inhibitor project, dose response (AID 624133). It is filed as functional.
Test [10] in a line: blockade of melanocortin 4 receptor signaling – cell-based, plate reader, cherry pick, counter-screen for LGR2 antagonist project, dose response (AID 743444).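 Also: transfected HEK 293 cells stimulated with alpha-MSH peptide; potency of inhibitors of the alpha-MSH evoked signal.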 It is filed as functional. (A counterscreen serves to expose hits that act by an unwanted route or on another target.)
Test [11] in a line: loss of viability in HepG2 cells – cell-based, CellTiter-Glo, cherry-picked, cytotoxicity control for Shn3 inhibitor project, dose response (AID 624134). It is filed as functional. In general terms: In ATP-based viability assays light output follows the ATP content of the culture.
A short description of test [12]: A549 cell cytotoxicity, dose response, cytotoxicity control, plate reader, cherry-pick, antagonist series (AID 743412). It is filed as functional, cell-based.
Test [13] is described as follows: reduction of Shn3 3'UTR-driven luciferase in osteoblasts – cell-based, Clone20 osteoblasts, firefly luciferase, cherry-picked, dose response (AID 624132).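 Also: firefly luciferase luminescence from reporter carrying the Shn3 3'UTR in osteoblasts.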 It is filed as functional.
A short description of test [14]: blockers of bursicon-stimulated LGR2 cAMP reporter – cell-based, HEK293, CRE-luciferase reporter, cherry pick, set 2, dose response (AID 743343).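 Also: transfected cells were stimulated with diluted bursicon conditioned medium after compound addition.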 It is filed as functional. Background: A reporter such as luciferase makes a cellular process visible.
For test [15], the system named is INS1. Description: INS-1E survival protection against cytokine death – cell-based, luminescence, retest, dose response (AID 449756).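 Also: cell death triggered by IL-1 beta plus TNF-alpha plus IFN-gamma mixture; protective hits raise ATP signal compared with cytokine alone wells.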 It is filed as functional. The following applies: Rattus norvegicus.
Test [16] can be described thus: cells. It is filed as functional, cell-based. The note with it: HEK-CNG.
Test [17] has as its target T3, Galanin receptor type 3 (Homo sapiens, UniProt O60755).
T3 sequence (O60755 whole entry): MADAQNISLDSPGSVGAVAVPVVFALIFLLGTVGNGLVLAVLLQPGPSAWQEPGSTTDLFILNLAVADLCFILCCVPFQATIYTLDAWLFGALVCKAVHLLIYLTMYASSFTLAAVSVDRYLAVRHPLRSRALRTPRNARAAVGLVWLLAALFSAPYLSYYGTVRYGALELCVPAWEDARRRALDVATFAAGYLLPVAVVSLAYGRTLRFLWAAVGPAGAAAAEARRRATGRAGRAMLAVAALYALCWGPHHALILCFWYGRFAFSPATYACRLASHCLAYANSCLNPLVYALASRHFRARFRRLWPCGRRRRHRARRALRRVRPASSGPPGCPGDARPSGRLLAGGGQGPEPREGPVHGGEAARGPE
Kind of test: Fluorescence-based cell-based primary high throughput dose response assay to identify antagonists of the Galanin Receptor 3 (GalR3). It is filed as functional.

Test [18] deals with T4, Carboxy-terminal domain RNA polymerase II polypeptide A small phosphatase 1 (Homo sapiens, UniProt Q9GZU7).
T4 sequence (Q9GZU7 whole entry): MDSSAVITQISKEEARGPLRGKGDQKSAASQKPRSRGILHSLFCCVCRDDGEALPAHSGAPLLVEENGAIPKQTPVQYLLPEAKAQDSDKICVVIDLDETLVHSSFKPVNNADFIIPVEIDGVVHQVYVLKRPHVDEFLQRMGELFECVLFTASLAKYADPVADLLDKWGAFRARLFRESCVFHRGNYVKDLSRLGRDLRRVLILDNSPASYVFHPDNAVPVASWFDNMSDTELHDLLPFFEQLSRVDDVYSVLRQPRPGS
Kind of test: CTDSP1 inhibitors, concentration-response, biochemical, absorbance readout, ultra-high-throughput screen actives (AID 540297). It is filed as functional.

The nature of test [19]: HEK-293T viability loss after treatment – luminescence, T-cell screen hits, cytotoxicity control for TCR NF-kB inhibitor project, dose response (AID 489026).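 Also: cells exposed to compound about 14 hours before the viability readout.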 It is filed as functional, cell-based.
The target of test [20] is T5, Small ubiquitin-related modifier 1 (Homo sapiens, UniProt P63165). Description: SUMO1 protein-protein binding blockers, potency – biochemical, FRET, dose response (AID 624383). It is filed as functional. The following applies: read-out: IC50_Mean.
Test [21] deals with T5, Small ubiquitin-related modifier 1. Kind of test: SUMO1 protein interaction blockers, potency – biochemical, fluorescence polarization, uHTS hits, dose response (AID 624382). It is filed as functional. The following applies: read-out: IC50_Mean.
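For EC50 in this document: target is galanin receptor GalR3 read with a cAMP biosensor in HEK293 cells.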

Sequence of Protein Wnt-3a (P27467 whole entry): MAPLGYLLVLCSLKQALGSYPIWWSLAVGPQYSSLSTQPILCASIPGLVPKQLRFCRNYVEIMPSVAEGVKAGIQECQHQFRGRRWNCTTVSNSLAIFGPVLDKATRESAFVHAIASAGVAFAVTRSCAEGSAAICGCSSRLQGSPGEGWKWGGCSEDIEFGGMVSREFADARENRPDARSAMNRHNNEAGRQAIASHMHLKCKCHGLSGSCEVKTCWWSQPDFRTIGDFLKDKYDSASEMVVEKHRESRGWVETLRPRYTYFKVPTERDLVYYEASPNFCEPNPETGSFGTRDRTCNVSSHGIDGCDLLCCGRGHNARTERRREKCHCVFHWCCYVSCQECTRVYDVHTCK
T5 sequence (P63165 whole entry): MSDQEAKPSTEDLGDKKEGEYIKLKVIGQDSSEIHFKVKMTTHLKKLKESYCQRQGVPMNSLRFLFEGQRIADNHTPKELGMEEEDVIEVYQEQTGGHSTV
Sequence of Dual specificity protein phosphatase 3 (P51452 whole entry): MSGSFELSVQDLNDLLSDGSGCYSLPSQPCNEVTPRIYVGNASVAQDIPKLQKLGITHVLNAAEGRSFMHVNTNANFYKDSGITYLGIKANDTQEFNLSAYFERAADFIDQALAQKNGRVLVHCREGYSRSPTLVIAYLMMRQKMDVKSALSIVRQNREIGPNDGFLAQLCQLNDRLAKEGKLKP

As for `Cc1sc2nc(CSC(C)C(=O)Nc3ccc(Cl)cn3)nc(O)c2c1C` (configuration not stated), the IC50 was 0.927 µM (active) in [1], 15.6 µM (active) in test [2] and 5.47 µM (active) in test [3].

With `O=C(NN1C(=O)CSC1c1ccc(C(F)(F)F)cc1)c1ccncc1` (configuration not stated), the GI50 (in general, the concentration giving 50% growth inhibition) in [4] was > 100 µM (inactive); in [5], > 100 µM (inactive); in test [6], > 67.6 µM (inactive).

As for `COc1ccc(N(CC(=O)NCc2cccs2)S(=O)(=O)c2ccc(C(C)=O)cc2)cc1`, in test [7], the AC50 (commonly the midpoint of the concentration-response curve, whichever way the signal moves) is > 52 µM (inactive).

Take `Cc1cc(C)c(C)c(S(=O)(=O)N2CCN(c3ncnc4ccccc34)CC2)c1C`: in [8], the IC50 is 1.96 µM (active). The AC50 was 4.26 µM (active) in test [7]; 1.86 µM (active) in test [9]; 34.2 µM (active) in test [10]; 1.91 µM (active) in test [11]; 31.4 µM (active) in test [12]; 1.46 µM (active) in test [13]. The AC50 in test [14] is 24.9 µM (active); in test [15] it was 2.22 µM (active).

As for `O=C(NCCCl)NNc1c(Cl)cc(Cl)cc1Cl`, in [16], the EC50 (as a rule, the concentration giving half of the maximal effect) is > 29.9 µM (inactive). Besides, the IC50 in test [17] is > 29.9 µM (inactive).

On to `COc1cccc(Nc2nn3c(=O)c4ccccc4nc3s2)c1`, for which the IC50 was 6.62 µM (active) in test [1], 12.8 µM (active) in test [18], 24.9 µM (inactive) in [2] and 9.22 µM (active) in test [3].

Turning to `Cc1ncoc1C(=O)NC1CCCc2c1cnn2-c1ccc(C(C)(C)C)cc1` (configuration not stated), the IC50 was > 80 µM (inactive) in test [19] and 4.53 µM (active) in [8].

In the case of `COc1ccc(C2=CC(c3ccc4c(c3)OCO4)c3c(c4ccccc4oc3=O)O2)cc1OC` (configuration not stated), the EC50 in test [16] was > 29.9 µM (inactive). Also, the IC50 in [17] is 5.72 µM (active).

Regarding `CCOC(=O)CCc1c(C)c2c(O)cc(O)cc2oc1=O`, the GI50 in [4] was > 94.2 µM (inactive); in [5], 3.77 µM (inactive); in test [6], 14 µM (inactive).

Consider `COc1c(/C=C2\SC(Nc3ccccc3Cl)=NC2=O)cccc1[N+](=O)[O-]`, for which the EC50 in [16] was > 29.9 µM (inactive). The IC50 in test [17] was 0.547 µM (active).

For `O=C(CSc1nc(C2CC2)nc2ccccc12)Nc1cccc(O)c1`, the IC50 in test [20] was 20.4 µM (inactive); in test [21], > 66.6 µM (inactive).

`N/C(S)=N/N=C/c1ncccc1O`: the GI50 in [4] was 0.382 µM (active); in [5] it was 0.347 µM (active); in test [6], 0.366 µM (active).

Consider `CCOC(=O)c1cc(-c2ccc(OC)cc2)nn1-c1ccccc1C(=O)O`, for which the figures for the IC50 in test [20], in test [18] and in test [21] were 21.8 µM (inactive), 14.5 µM (active) and > 66.6 µM (inactive), respectively.

For the compound `O=C(Nc1ccc2oc(=O)ccc2c1)c1ccc(-c2ccccc2[N+](=O)[O-])o1`, the results for the IC50 in [20] and in [21] were 10.2 µM (active) and > 66.6 µM (inactive), respectively.

Regarding `Nc1c(S(=O)(=O)O)cc(S(=O)(=O)O)c2ccc(/N=N/c3ccc(/C=C/c4ccc(/N=N/c5ccc6c(S(=O)(=O)O)cc(S(=O)(=O)O)c(N)c6c5O)cc4S(=O)(=O)O)c(S(=O)(=O)O)c3)c(O)c12`, the GI50 in test [4] was > 100 µM (inactive); in [5], 73.5 µM (inactive).

Regarding `N/C(=N\O)N/N=C/c1ncccc1O`, the GI50 in test [4] is 3.52 µM (inactive); in [5] it was 1.67 µM (inactive); in test [6], 1.52 µM (inactive).

For the compound `CNS(=O)(=O)c1cccc(C(=O)OCC(=O)c2cc(C)n(CC3CCCO3)c2C)c1` (configuration not stated), the IC50 in test [8] is 28.9 µM (inactive).
